{"source": "patent US20260061191A1", "about": "“Using Alternating Electric Fields to Increase Cell Membrane Permeability” (The Board of Trustees of the Leland Stanford Junior …, priority 2018, published 2026)", "key": {"U87-MG cells [1]": {"system": "U87-MG cells", "assay": "5-ALA uptake (PpIX fluorescence), single U87-MG culture", "assay_type": "cell-based, human", "description": "Experiments were performed to determine the effects of TTFields on uptake of 5-ALA (as measured by PpIX accumulation and its resultant fluorescence) in glioblastoma cells. Because it is difficult to distinguish the margin between tumor and normal cells using the present 5-ALA bioassay, the measurement of PpIX fluorescence was used to address this issue. Investigations were run to determine whether permeation of 5-ALA through the cellular membrane and into the glioblastoma cells could be increased with TTFields exposure. U87-MG cells were exposed or unexposed to TTFields, each for durations of 6-24 h.\nAll monovariant statistical comparisons between no TTFields vs. TTFields samples done by Student's t-test for n=3 experiments per time point."}, "[2]": {"system": "U87-MG cells on PCS-201 fibroblasts co-culture", "assay": "5-ALA uptake (PpIX fluorescence), U87-MG GBM on PCS-201 fibroblast co-cultures", "assay_type": "cell-based, human"}, "U87-MG cells [3]": {"system": "U87-MG cells", "assay": "Timing of permeability to 7-AAD after alternating electric field, flow cytometry", "assay_type": "cell-based, human", "settings": "300 kHz, 1.62 V/cm RMS, 24 hours; sample incubated with 7-AAD while subjected to the field (added 15 minutes prior to cessation)", "description": "FIG. 7D depicts the results of an experiment to test how quickly the permeability drops back down after cessation of the alternating electric fields. More specifically, 7-Aminoactinomycin D (7-AAD) is a fluorescent chemical compound with a strong affinity for DNA. […] 7-AAD was introduced into samples at five different times: 15 minutes prior to the cessation of the alternating electric field; immediately after cessation of the alternating electric field […]. In each case, the cells were incubated with 7-AAD for 30 minutes after introduction of the 7-AAD, followed by flow cytometry analysis of the percentage of cells with increased accumulation of the fluorescent 7-AAD for each of the different timings."}, "[4]": {"system": "MDA-MB-435 human melanoma cell line cells", "assay": "Permeability of cell membranes to 7-AAD, flow cytometry", "assay_type": "cell-based", "description": "After this 15 minute period, alternating electric field application was terminated and the cells were incubated at room temperature for an additional 15 minutes.\nAfter this 24 hour period, the alternating electric fields were turned off for 15 minutes, after which the 7-AAD was added. After waiting an additional 15 minutes, the percentage of cells with increased accumulation of the fluorescent 7-AAD was determined using flow cytometry."}, "GBM39/Luc cells": {"system": "GBM39/Luc cells", "assay": "Drug sensitivity / synergy with TTFields", "assay_type": "cell-based, human"}, "U87-MG/GFP-Luc cells": {"system": "U87-MG/GFP-Luc cells", "assay": "Drug sensitivity / synergy with TTFields", "assay_type": "cell-based, human"}, "GBM39 cells": {"system": "GBM39 cells", "assay": "Drug sensitivity with TTFields", "assay_type": "cell-based, human", "settings": "TTFields for 3 days vs control without TTFields"}, "glioblastoma patients": {"system": "glioblastoma patients", "assay": "Survival of glioblastoma patients treated with TTFields plus temozolomide", "assay_type": "in vivo, human", "settings": "TTFields plus temozolomide vs temozolomide alone, re-analysis of Ram et al.", "text": "The treatment of glioblastoma (GBM) using alternating electric fields is a novel, validated therapy that has become an additional modality (after surgery chemoradiation and chemotherapy) for anti-cancer treatments. Intermediate frequency alternating electric fields (100-500 kHz) have been studied in detail. […] In the context of treating tumors, alternating electric fields at these frequencies are often referred to as “tumor treating fields” or “TTFields.”\nRecurrence of GBM is inevitable and the median time to first recurrence despite standard therapy is approximately 7 months. […] TTFields compliance (≥75% vs. <75%) was an independent predictor of overall survival in the retrospective analysis of the full EF-14 trial dataset and the duration of use of TTFields was also found to affect overall survival. […] Namely, a correlation between the length of TTFields exposure and the duration of its effect on cell membrane permeability after cessation of TTFields was observed. At lengths of TTFields exposure of 0.5-3 h, the duration in BLI augmentation (compared to no TTFields conditions) lasted about 5 min. However, at TTFields exposures of 12-25 h, this difference in BLI between TTFields and no TTFields conditions lasted for more than 20 min."}, "U87-MG/eGFP-fLuc cells [5]": {"system": "U87-MG/eGFP-fLuc cells", "assay": "Annexin-V-APC binding (early apoptosis), fluorescence microscopy", "assay_type": "cell-based, human", "settings": "21 μM, TTFields-unexposed samples", "description": "To test if the imposition of TTFields affects cell membrane properties, and thus membrane permeability, the effect of TTFields on the behavior of fluorescently tagged reagents that bind to the cellular membrane was determined. Initially, the impact of TTFields on the binding of Annexin-V-APC to the membrane of U87-MG/eGFP-fLuc cells was measured. Annexin-V-APC binding is a signature of early apoptosis which is characterized by ruffling of the membrane."}, "human glioblastoma cells": {"system": "human glioblastoma cells", "assay": "Growth inhibition by TTFields in conjunction with Withaferin A", "assay_type": "cell-based", "settings": "TTFields treatment in conjunction with Withaferin A", "text": "In this figure, 5-ALA=5-aminolevulinic acid; Ethidium D=ethidium bromide; and FITC=fluorescein isothiocyanate."}, "[6]": {"system": "human glioblastoma cells that have been modified to express luciferase", "experimental": "U87-MG/eGFP-fLuc cells were seeded on Thermanox glass coverslips, allowed to settle and grow, and then subjected to either TTFields or no TTFields.\nBioluminescence imaging: For all bioluminescence work, we used genetically-modified GBM2, GBM39 and U87-MG whereby the glioblastoma cells were transfected with lentiviral vectors that expressed either firefly luciferase (fLuc for GBM39) or a fusion protein of GFP and firefly luciferase (GFP/fLuc for GBM2 and eGFP-fLuc for U87-MG) or a Renilla luciferase-Red Fluorescence protein fusion (RLuc-RL8 for KR158B)."}, "MDA-MB-235 cells": {"system": "MDA-MB-235 cells", "assay": "Drug sensitivity / synergy with TTFields", "assay_type": "cell-based"}, "[7]": {"system": "MDA-MB-435 cells, wild type", "assay": "Intracellular accumulation of doxorubicin under alternating electric field", "settings": "150 kHz, 1.62 V/cm, 23 hours, then 10 μM doxorubicin for one hour with field; vs no field", "experimental": "(§1) In this experiment, both wild type and doxorubicin resistant variants of MDA-MB-435 cells were treated with an alternating electric field at 150 kHz with a field strength of 1.62 V/cm for 23 hours. After this 23 hour period, doxorubicin at a concentration of 10 μM was added and incubated for one hour, during which time the alternating electric fields was continued. The intracellular accumulation of doxorubicin was then measured."}, "[8]": {"system": "MDA-MB-435 cells, doxorubicin resistant", "assay": "Intracellular accumulation of doxorubicin under alternating electric field", "settings": "150 kHz, 1.62 V/cm, 23 hours, then 10 μM doxorubicin for one hour with field; vs no field", "experimental": "as §1"}, "MES-SA cells": {"system": "MES-SA cells", "assay": "Intracellular accumulation of doxorubicin under 150 kHz alternating electric field", "settings": "1.62 V/cm RMS, 24 hours, 10 μM doxorubicin for the last hour", "experimental": "In this experiment, MES-SA cells were treated with an alternating electric field at 150 kHz with a field strength of 1.62 V/cm RMS for 24 hours. After the first 23 hours, doxorubicin at a concentration of 10 μM was added and incubated for one hour during which time the alternating electric fields was continued (to complete the 24 hour period). The intracellular accumulation of doxorubicin was then measured."}, "U87-MG/eGFP-fLuc cells [9]": {"system": "U87-MG/eGFP-fLuc cells", "assay": "Ethidium D uptake under TTFields", "assay_type": "cell-based, human", "settings": "200 kHz TTFields vs no TTFields, p<0.0001", "text": "Ethidium D permeates through both the plasma membrane and the nuclear membrane and intercalates into genomic DNA."}, "[10]": {"target": "T1, purified firefly luciferase (Photinus pyralis, UniProt P08659)", "T1 construct": "purchased Sigma Aldrich Inc (St. Louis, MO) SRE0045-2MG", "T1 sequence (P08659 whole entry)": "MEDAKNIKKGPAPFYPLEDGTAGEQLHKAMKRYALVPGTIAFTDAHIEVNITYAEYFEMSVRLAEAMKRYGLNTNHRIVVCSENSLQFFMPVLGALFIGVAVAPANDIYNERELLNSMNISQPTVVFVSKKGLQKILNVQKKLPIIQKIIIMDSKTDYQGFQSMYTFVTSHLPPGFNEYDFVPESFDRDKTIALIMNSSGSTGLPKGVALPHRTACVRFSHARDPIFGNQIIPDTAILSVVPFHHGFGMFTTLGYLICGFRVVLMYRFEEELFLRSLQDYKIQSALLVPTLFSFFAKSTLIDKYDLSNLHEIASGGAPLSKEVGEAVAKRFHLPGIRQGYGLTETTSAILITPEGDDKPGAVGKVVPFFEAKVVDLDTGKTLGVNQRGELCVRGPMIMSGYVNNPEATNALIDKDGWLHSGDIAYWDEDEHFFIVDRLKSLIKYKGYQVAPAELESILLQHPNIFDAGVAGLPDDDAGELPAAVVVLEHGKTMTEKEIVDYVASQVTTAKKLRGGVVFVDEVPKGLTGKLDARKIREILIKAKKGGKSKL", "assay": "Activity of purified firefly luciferase exposed to TTFields", "assay_type": "biochemical", "settings": "200 kHz TTFields, 60 minutes after initiation of TTFields"}, "[11]": {"settings": "TTFields for 3 days vs control without TTFields"}}, "data": [{"compound": "NCC(=O)CCC(=O)O", "note": "[5-ALA, 5-aminolevulinic acid]", "values": [{"measurement": "uptake of 5-ALA (PpIX fluorescence)", "setting": "U87-MG cells [1]; 6 h of TTFields exposure vs no TTFields, p=0.047", "value": "significantly increased uptake"}, {"measurement": "uptake of 5-ALA (PpIX fluorescence)", "setting": "U87-MG cells [1]; 24 h of TTFields exposure vs no TTFields, p=0.011", "value": "increase was maintained"}, {"measurement": "5-ALA uptake in the GBM cells compared to the fibroblast cells (ratio of PpIX fluorescence intensity)", "setting": "[2]; TTFields exposure (by 24 h, p=0.043) vs no TTFields", "value": "significantly increased"}, {"measurement": "rate of PpIX fluorescence intensity increase", "setting": "[2]; TTFields-exposed vs unexposed co-cultures, 2, 6 and 24 h, p<0.001", "value": "significantly augmented"}]}, {"compound": "Cc1c2oc3c(C)c(N)cc(C(=O)N[C@@H]4C(=O)N[C@H](C(C)C)C(=O)N5CCC[C@H]5C(=O)N(C)CC(=O)N(C)[C@@H](C(C)C)C(=O)O[C@@H]4C)c3nc-2c(C(=O)N[C@@H]2C(=O)N[C@H](C(C)C)C(=O)N3CCC[C@H]3C(=O)N(C)CC(=O)N(C)[C@@H](C(C)C)C(=O)O[C@@H]2C)c(N)c1=O", "note": "[7-AAD, 7-Aminoactinomycin D]", "values": [{"measurement": "percentage of cells with increased accumulation of 7-AAD", "setting": "U87-MG cells [3]", "value": "significant increase in accumulation"}, {"measurement": "percentage of cells with increased accumulation of 7-AAD", "setting": "[4]; 150 kHz, 1.62 V/cm, 24 hours, 7-AAD added 15 minutes after fields were turned off", "value": "~20", "unit": "%"}, {"measurement": "percentage of cells with increased accumulation of 7-AAD", "setting": "[4]; 150 kHz, 1.62 V/cm, 24 hours, 7-AAD added for the last 15 minutes of the field", "value": "~66", "unit": "%"}, {"measurement": "percentage of cells with increased accumulation of 7-AAD", "setting": "[4]; control, same conditions, alternating electric fields not applied", "value": "less than 5%"}]}, {"compound": "CCc1c2c(nc3ccc(OC(=O)N4CCC(N5CCCCC5)CC4)cc13)-c1cc3c(c(=O)n1C2)COC(=O)[C@]3(O)CC", "note": "[Irinotecan]", "values": [{"measurement": "synergy of the combination with TTFields", "setting": "GBM39/Luc cells", "value": "synergy was found"}, {"measurement": "sensitivity of cells to various concentrations of drug", "setting": "GBM39/Luc cells; [11]", "value": "improves the sensitivity"}]}, {"compound": "O=NN(CCCl)C(=O)NC1CCCCC1", "note": "[Lomustine]", "values": [{"measurement": "sensitivity of cells to various concentrations of drug", "setting": "U87-MG/GFP-Luc cells; [11]", "value": "improves the sensitivity"}, {"measurement": "sensitivity of cells to various concentrations of drug", "setting": "GBM39 cells", "value": "improves the sensitivity"}, {"measurement": "sensitivity of cells to various concentrations of drug", "setting": "pcGBM2/GFP-Luc cells; [11]", "value": "improves the sensitivity"}]}, {"compound": "Cn1nnc2c(C(N)=O)ncn2c1=O", "note": "[Temozolomide]", "values": [{"measurement": "percent increase in overall survival", "setting": "glioblastoma patients; after 1 year of TTFields exposure", "value": 32, "unit": "%"}, {"measurement": "percent increase in overall survival", "setting": "glioblastoma patients; after 5 years of TTFields exposure", "value": 551, "unit": "%"}]}, {"compound": "CC1=C(CO)C(=O)O[C@@H]([C@@H](C)[C@H]2CC[C@H]3[C@@H]4C[C@H]5O[C@]56[C@@H](O)C=CC(=O)[C@]6(C)[C@H]4CC[C@]23C)C1", "note": "[Withaferin A]", "values": [{"measurement": "Annexin-V-APC binding (positive control for apoptosis)", "setting": "U87-MG/eGFP-fLuc cells [5]", "value": "could be visualized"}, {"measurement": "synergy of the combination with TTFields", "setting": "U87-MG/GFP-Luc cells", "value": "synergy was found"}, {"measurement": "synergy of the combination with TTFields", "setting": "GBM39/Luc cells", "value": "synergy was found"}, {"measurement": "growth of human glioblastoma cells", "setting": "human glioblastoma cells", "value": "synergistically inhibited the growth"}, {"measurement": "synergy of the combination with TTFields", "setting": "pcGBM2/GFP-Luc cells", "value": "synergy was found"}]}, {"compound": "Oc1ccc(Cc2nc3c(Cc4ccccc4)nc(-c4ccc(O)cc4)cn3c2O)cc1", "note": "[coelenterazine]", "values": [{"measurement": "permeation of the substrates through the plasma membrane (greater bioluminescence)", "setting": "[6]", "value": "increased permeation"}]}, {"compound": "COc1cccc2c1C(=O)c1c(O)c3c(c(O)c1C2=O)C[C@@](O)(C(=O)CO)C[C@@H]3O[C@H]1C[C@H](N)[C@H](O)[C@H](C)O1", "note": "[doxorubicin]", "values": [{"measurement": "synergy of the combination with TTFields", "setting": "MDA-MB-235 cells", "value": "Evidence of synergy"}, {"measurement": "sensitivity of cells to various concentrations of drug", "setting": "MDA-MB-235 cells; [11]", "value": "improves the sensitivity"}, {"measurement": "intracellular accumulation of doxorubicin", "setting": "[7]", "value": "increased"}, {"measurement": "intracellular accumulation of doxorubicin", "setting": "[8]", "value": "increased"}, {"measurement": "increase of intracellular accumulation of doxorubicin", "setting": "MES-SA cells", "value": "more than 2 X"}]}, {"compound": "CC[n+]1c(-c2ccccc2)c2cc(N)ccc2c2ccc(N)cc21", "note": "[ethidium D, ethidium bromide]", "values": [{"measurement": "ethidium D uptake", "setting": "U87-MG/eGFP-fLuc cells [9]", "value": "significantly increased"}]}, {"compound": "firefly luciferase: purified firefly luciferase (SRE0045-2MG) purchased from Sigma Aldrich", "values": [{"measurement": "loss in enzymatic activity", "setting": "[10]", "value": "> 1000", "unit": "fold"}]}]}
